{"source": "patent US10987317B2", "about": "“Inhibition of glutaminase C” (Cornell University, priority 2009, dated 2021)", "key": {"[1]": {"test_system": "GA activity in SKBR3 cells", "assay": "GA activity in mitochondrial fractions", "assay_type": "cell-based, human", "conditions": "2 μM", "procedure": "(§1) 100%=620 moles of glutamine hydrolyzed per minute per mole of enzyme. Data represent the average of 3 experiments (±s.d.). […] Following precipitation of the beads and re-suspension, the samples are analyzed by Western blotting with anti-V5 antibody. […] Data represent the average of 3 experiments (±s.d.). […] Data represent the average of 3 experiments (±s.d.). […] Data represent the average of 3 experiments (±s.d.). FIG. 3E NIH 3T3 cells transiently expressing Dbl are assayed for focus formation in the presence of 10 μM 968 alone or together with […] dimethyl α-ketoglutarate. […] 100%=680 nM glutamine hydrolyzed per minute per 10^5 cells. Data are the average of 3 experiments (=s.d.). […] 100%=750 nM glutamine hydrolyzed per minute per 10^5 cells. Data represent the average of 3 experiments (±s.d.).\n(§2) FIGS. 4A-E illustrate the role of glutaminase C activity in cellular transformation. […] Data represent the average of 3 experiments (±s.d.). […] Data represent the average of 3 experiments (±s.d.). […] 100% represents the activity measured in untreated Dbl-transformed cells. The data represent the average of 2 experiments. […] 100% represents the activity measured in untreated SKBR3 cells. The data represent the average of 2 experiments. […] Data represent the average of 3 experiments (±s.d.).\nFIGS. 11A-E illustrate the effects of different treatments on GA activity. […] The addition of Pi stimulated the GA activity in control 3T3 cells, Dbl-expressing cells, and Cdc42(F28L)-expressing cells by ˜6-fold, 2-fold, and 3-fold, respectively. 100% represents the Pi-stimulated activity measured for Dbl-transformed cells that are not treated with 968. Data is the average of 3 experiments (±s.d.). […] The addition of Pi stimulated the GA activity of HMECs, MDA-MB231 cells, and SKBR3 cells by ˜5-fold, 2-fold, and 1.4-fold, respectively. […] The data are plotted as the percentage of GA activity measured for untreated SKBR3 cells and represent the average of 2 experiments. […] 100% represents the P1-stimulated activity measured for untreateDbl-transformed cells. […]"}, "[2]": {"test_system": "GA activity in Dbl- and Cdc42(F28L)-expressing NIH 3T3 cells", "assay": "GA activity in mitochondrial fractions of transformed fibroblasts", "assay_type": "cell-based", "conditions": "Dbl-transformed cells, 2 μM", "procedure": "as §1, §2\nFIGS. 11A-E illustrate the effects of different treatments on GA activity. […] The addition of Pi stimulated the GA activity in control 3T3 cells, Dbl-expressing cells, and Cdc42(F28L)-expressing cells by ˜6-fold, 2-fold, and 3-fold, respectively. 100% represents the Pi-stimulated activity measured for Dbl-transformed cells that are not treated with 968. Data is the average of 3 experiments (±s.d.). […] The addition of Pi stimulated the GA activity of HMECs, MDA-MB231 cells, and SKBR3 cells by ˜5-fold, 2-fold, and 1.4-fold, respectively. 100% represents the Pi-stimulated activity for SKBR3 cells that were not treated with 968. Data are the average of 3 experiments (±s.d.). […] Mitochondrial fractions are prepared from equal numbers of cells and assayed for GA activity in the presence or absence of 133 mM Pi. The data are plotted as the percentage of GA activity measured for untreated SKBR3 cells and represent the average of 2 experiments. […] 100% represents the P1-stimulated activity measured for untreateDbl-transformed cells. The data represent the average of 2 experiments. […] 100% represents the Pi-stimulated activity for untreated SKBR3 cells. The data represent the average of 2 experiments.\nMitochondrial preparations were obtained using the mitochondria isolation kit from QIAGEN (Cat #37612). A suspension containing 2×10^7 cells was transferred into a 50 ml conical tube and centrifuged at 500×g for 10 minutes at 4° C. […]"}, "[3]": {"biological_target": "T1, E. coli-expressed mouse ortholog of human GAC (Mus musculus, UniProt D3Z7P3)", "T1 construct": "A plasmid encoding mouse GAC (residues 128-603) was cloned into the pET28a vector; His-tag (N, cleaved yes); made in house; host or cells: E. coli (pET28a)", "T1 sequence (D3Z7P3 128-603 isoform D3Z7P3-2)": "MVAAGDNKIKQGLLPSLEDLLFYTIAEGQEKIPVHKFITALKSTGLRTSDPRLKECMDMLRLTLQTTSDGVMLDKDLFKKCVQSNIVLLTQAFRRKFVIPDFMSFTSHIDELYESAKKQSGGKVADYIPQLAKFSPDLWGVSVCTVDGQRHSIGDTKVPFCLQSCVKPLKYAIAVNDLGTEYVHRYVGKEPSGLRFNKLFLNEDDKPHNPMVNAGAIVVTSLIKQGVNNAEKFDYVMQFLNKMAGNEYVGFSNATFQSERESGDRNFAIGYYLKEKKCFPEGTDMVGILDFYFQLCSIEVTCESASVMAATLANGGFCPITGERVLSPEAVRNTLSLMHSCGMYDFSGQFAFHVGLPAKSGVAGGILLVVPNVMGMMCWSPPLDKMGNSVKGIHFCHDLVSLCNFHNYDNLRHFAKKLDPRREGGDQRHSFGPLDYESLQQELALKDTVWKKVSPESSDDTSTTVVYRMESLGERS", "assay": "Recombinant glutaminase activity assay", "assay_type": "biochemical", "procedure": "as §1\nThe activity of the E. coli-expressed recombinant mouse ortholog of human GAC are assayed in the presence of 0 (●), 10 (∇) or 20 (▪) μM 968 and inorganic phosphate in the form of dipotassium hydrogen phosphate. […] The data are plotted as GA activity as function of varying concentrations of glutamine or inorganic phosphate. The data are the average of 3 experiments and are plotted as mean±SEM.\nGlutaminase activity assays were performed on recombinant enzyme as previously described (Kenny et al., “Bacterial Expression, Purification and Characterization of Rat Kidney-Type Mitochondrial Glutaminasc,” Protein Expr. Purif 31:140-148 (2003), which is hereby incorporated by reference in its entirety). A plasmid encoding mouse GAC (residues 128-603) was cloned into the pET28a vector and the protein was expressed with an N-terminal histidine (His)-tag. The tag was cleaved using thrombin and the protein was further purified by anion-exchange and gel-filtration chromatography. […] The reaction mixture was incubated at room temperature for 45 minutes and the absorbance at 340 nm was recorded for each sample against a water blank. The absorbance of the sample with just the cocktail mixture was subtracted from each reading to calculate the activity of the enzyme."}, "[4]": {"test_system": "NIH 3T3 cells transfected with oncogenic Dbl", "assay": "Dbl-induced cellular transformation (focus-forming assays, growth in low serum, soft agar)", "assay_type": "cell-based", "conditions": "focus formation / growth in low serum", "procedure": "FIGS. 1A-E illustrate that the small molecule 968 inhibiting cellular transformation. […] Cells were fixed and stained with crystal violet for counting of foci. Right: 968 was serially diluted (10, 5, 2.5, and 1.25 μM) and evaluated for its ability to inhibit focus formation. […] After 6 days, the cells are counted. 100% represents the number of Dbl-transformed cells counted in the absence of 968 (27.5×10^4 cells). Data represent the average of 3 experiments (±s.d.). […] At the indicated times, the cells are counted. Data represent the average of 3 experiments (±s.d.).\nFIGS. 2A-G illustrate effects of 968 on the transforming activity of constitutively active Rho GTPases and human breast cancer cells. […] Cells are scored after 14 days and plotted as the percentage of the total number of colonies greater than […] in diameter. Data represent the average of 3 experiments (±s.d.). […] Data represent the average of 3 experiments (±s.d.). […] Data represent the average of 3 experiments (±s.d.). […] After 24 hours at 37° C. the migratory cells are fixed, stained with GIEMSA, and counted. Data represent the average of 3 experiments (±s.d.). […] Data represent the average of 3 experiments (±s.d.). […] Data represent the average of 3 experiments (±s.d.). […] Data represent the average of 3 experiments (±s.d.).\nFIGS. 5A-C illustrate comparative abilities of 968 and other benzo[a]phenanthrldinones to inhibit the transforming activity of oncogenic Dbl and H-Ras. […] Histograms show the relative levels of Dbl-induced focus formation for the different treatments, compared to Dbl-induced focus formation measured in the presence of DMSO (i.e. solvent control). Data represent the average of 3 experiments (mean±s.d.). […] Histograms show the relative levels of Ras(G12V)-induced focus formation measured for the different treatments, compared to Ras(G12V)-induced focus formation measured in the presence of DMSO (solvent control). Data represent the average of 3 experiments (mean±s.d.). FIG. 5C NIH 3T3 cells stably expressing H-Ras(G12V) that are cultured in DMEM supplemented with 1% calf serum, with the indicated amounts of 968. After 6 days, cells are trypsinized and counted. 100% represents the number of cells counted in the absence of 968, i.e. 26×10^4 cells. Data represent the average of 3 experiments (mean±s.d.)."}, "[5]": {"biological_target": "T2, V5-tagged GAC from Dbl-transformed NIH 3T3 cells (Mus musculus, UniProt D3Z7P3)", "T2 construct": "expressed in transfected cells; host or cells: NIH 3T3 cells stably expressing oncogenic Dbl", "T2 sequence (D3Z7P3 55-603 isoform D3Z7P3-2 limits assumed)": "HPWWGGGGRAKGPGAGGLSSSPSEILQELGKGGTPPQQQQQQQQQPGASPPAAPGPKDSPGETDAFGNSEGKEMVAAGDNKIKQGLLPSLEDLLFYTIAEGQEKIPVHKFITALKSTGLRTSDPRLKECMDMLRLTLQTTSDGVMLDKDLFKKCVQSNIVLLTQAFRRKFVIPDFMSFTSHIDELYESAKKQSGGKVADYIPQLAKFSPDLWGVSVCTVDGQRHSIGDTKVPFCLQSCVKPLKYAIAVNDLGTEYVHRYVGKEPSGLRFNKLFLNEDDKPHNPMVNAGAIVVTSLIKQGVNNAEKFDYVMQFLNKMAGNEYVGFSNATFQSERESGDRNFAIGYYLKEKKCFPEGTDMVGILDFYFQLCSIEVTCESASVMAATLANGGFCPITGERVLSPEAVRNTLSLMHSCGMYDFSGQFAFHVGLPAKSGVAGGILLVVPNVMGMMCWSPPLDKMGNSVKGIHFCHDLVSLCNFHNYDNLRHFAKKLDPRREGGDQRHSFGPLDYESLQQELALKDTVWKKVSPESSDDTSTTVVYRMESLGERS", "assay": "GA activity of immunoprecipitated V5-GAC", "assay_type": "cell-based", "conditions": "GAC isolated from Dbl cells, dephosphorylation conditions", "source_text": "as §2\nNIH 3T3 cells or NIH 3T3 cells stably expressing the Dbl oncogene, were transiently transfected with DNA encoding a V5-tagged GAC. The cells were then harvested and the ectopically expressed GAC was isolated by immunoprecipitation via the V5 tag. The VS-GAC obtained from one of the Dbl samples was additionally treated with alkaline phosphtase under dephosphorylation conditions. The samples were then assayed for glutaminase activity in the absence of phosphate (top panel) and the relative expression levels of VS-GAC was determined by Western blotting using an anit-V5 antibody (bottom panel).\nNIH 3T3 cells stably expressing oncogenic Dbl were transiently transfected with DNA encoding VS-tagged GAC, and cells were treated with either 968 or BA-968 ([…]) as indicated for 48 hours. The cells were then harvested and the ectopically expressed GAC was isolated by immunoprecipitation via the V5 tag. The samples were then assayed for glutaminase activity in the absence of phosphate (top panel) and the relative expression levels of VS-GAC was determined by Western blotting using an anti-V5 antibody (bottom panel)."}}, "note": "Entries after “also recorded” stand apart in the source; their conditions may differ.", "data": [{"molecule": "Cc1ccc(S(=O)(=O)/C=C/C#N)cc1", "note": "[BAY 11-7082, reference compound]", "values": [{"measurement": "basal GA activity", "setting": "[1]", "value": "significantly reduces"}, {"measurement": "direct stimulation of the enzyme by phosphate", "setting": "[1]", "value": "little or no effect"}, {"measurement": "direct stimulation of the enzyme by phosphate", "setting": "[2]", "value": "little or no effect"}, {"measurement": "basal GA activity", "setting": "[2]; 2 days", "value": "significantly reduces"}]}, {"molecule": "CC1(C)CC(=O)C2=C(C1)c1c(ccc3ccccc13)NC2c1cccc(Br)c1", "note": "(centres unmarked) [Compound 335]", "values": [{"measurement": "inhibition of enzymatic activity of purified GAC", "setting": "[3]", "value": "little ability to inhibit enzyme activity"}, {"measurement": "inhibition of Dbl-induced transformation", "setting": "[4]", "value": "little or no inhibition; also recorded: less effective"}]}, {"molecule": "CN(C)c1ccc(C2Nc3ccc4ccccc4c3C3=C2C(=O)CC(C)(C)C3)cc1", "note": "(centres unmarked) [Compound 384]", "values": [{"measurement": "inhibition of Dbl-induced transformation", "setting": "[4]", "value": "little or no inhibition"}]}, {"molecule": "alkaline phosphatase [reference compound]", "values": [{"measurement": "reduction of basal glutaminase (phosphate independent) activity", "setting": "[5]", "value": 75, "unit": "%"}]}]}
